The values below are quoted from earlier work in article PMC11949389 (Polish Journal of Microbiology, 2025).

Molecules are shown by their SMILES. Values after ≈ are worked out from the molar mass of the structure shown. Like-named read-outs stand apart in the source and are kept apart here.

By MIC is commonly meant the lowest concentration found to suppress growth.

For series [1], the system named is Candida auris. The note with it: Candida auris; ref Shaban et al. 2020.
Series [2] relates to Candida albicans.
In series [3] the test system is Pseudomonas sp. The note with it: ref Caballero Gómez et al. 2022.
Series [4] deals with Mupirocin-susceptible Staphylococcus aureus. The note with it: ref Kwiatkowski et al. 2019.
Series [5] deals with Enterococcus sp. The note with it: ref Caballero Gómez et al. 2022.
The subject of series [6] is Vibrio anguillarum, and Vibrio harveyi. The note with it: ref Rossi et al. (2021).
In series [7] the test system is Staphylococcus aureus.
Series [8] deals with Candida glabrata. The note with it: Candida glabrata; ref Sharifzadeh et al. 2019; Iraji et al. 2020; Biernasiuk et al. 2022; Stringaro et al. 2022.
For series [9], the system named is Staphylococcus sp. The note with it: ref Caballero Gómez et al. 2022.
In series [10] the test system is carbapenem-resistant Klebsiella pneumoniae (CRKP) strains. The note with it: CRKP; ref Qian et al. 2020.
For series [11], the system named is Candida auris. The note with it: ref Shaban et al. 2020.
Series [12] relates to Mupirocin-resistant Staphylococcus aureus. The note with it: ref Kwiatkowski et al. 2019.
In series [13] the test system is Acinetobacter baumannii.
The test system of series [14] is Candida krusei.
Series [15] relates to Singapore grouper iridovirus (SGIV). The note with it: ref Wang et al. (2024).
Series [16] has as its system Acinetobacter baumannii. The note with it: ref Choudhary et al. 2022.
For series [17], the system named is Staphylococcus aureus. The note with it: for MIC/Sensitivity: Staphylococcus aureus, ref Kwiatkowski et al. 2020, Sayout et al. 2020, Sousa Silveira et al. 2020, Macêdo et al. 2022, Noumi et al. 2023, Sharma et al. 2023.
Series [18] concerns Candida tropicalis. The note with it: with voriconazole, C. tropicalis isolates; ref Sharifzadeh and Shokri (2021).
In series [19] the test system is Vibrio anguillarum. The note with it: ref Rossi et al. 2021.
The subject of series [20] is Carbapenem-resistant Klebsiella pneumoniae (CRKP). The note with it: ref Qian et al. 2020.
The test system of series [21] is Methicillin-resistant Staphylococcus aureus. The note with it: for Mechanisms of action: Methicillin-resistant Staphylococcus aureus.
Series [22] relates to Vibrio harveyi. The note with it: ref Rossi et al. 2021.
The test system of series [23] is Streptococcus mutans. The note with it: ref Jafri et al. (2019).
The subject of series [24] is Candida albicans. The note with it: ref Shaban et al. 2020.
Series [25] deals with Klebsiella pneumoniae. The note with it: ref Sayout et al. 2020, de Souza et al. 2021, Kwiatkowski et al. 2022.
The test system of series [26] is bovine mastitis. The note with it: versus antibiotic treatment, ref Guo et al. 2023.
The test system of series [27] is Methicillin-susceptible Staphylococcus aureus. The note with it: ref Owen et al. 2019.
Series [28] concerns Campylobacter jejuni.
Series [29] relates to Methicillin-resistant Staphylococcus aureus. The note with it: Methicillin-resistant Staphylococcus aureus; ref Owen et al. 2019.
Series [30] deals with Enterobacter cloacae. The note with it: ref Sayout et al. 2020.
Series [31] concerns influenza H1N1. The note with it: 20 μg/ml; ref Panagiotopoulos et al. (2021).
For series [32], the system named is Campylobacter jejuni. The source holds these as a separate data set.
Setting [33] is: Campylobacter jejuni, ref Šimunović et al. 2020.

On to `C=CCc1ccc(O)c(OC)c1` [Eugenol], for which the MIC/Sensitivity in series [1] is 0.625 mg/mL (≈ 3.81 mM); in series [2] (Candida albicans, ref Sharifzadeh et al. 2019, Iraji et al. 2020, Shaban et al. 2020, Stringaro et al. 2022, Biernasiuk et al. 2022), 0.5 to 2 mg/mL; in [3], 0.3 to 0.4 mg/mL; in [4], 2.08 mg/mL (≈ 12.7 mM); in [5] it was 0.2 to 0.45 mg/mL; in series [8], 1 to 2 mg/mL. Also, the MIC/Sensitivity is 0.3 to 0.4 mg/mL in series [9]; 8.34 mg/mL (≈ 50.8 mM) in series [12]; 0.25 to 1 mg/mL in [14] (Candida krusei, ref Sharifzadeh et al. 2019, Iraji et al. 2020, Biernasiuk et al. 2022, Stringaro et al. 2022); 0.024 to 11.1 mg/mL in series [17]; 308.696 mg/mL (≈ 1880 mM) in series [19]; 308.696 mg/mL (≈ 1880 mM) in series [22]. The “planktonic MIC” value was 0.2 mg/mL in [2] (C. albicans, ref Jafri et al. (2019)) and 0.2 mg/mL in [23]. Further, the MIC in series [6] was 940 to 7500 µM; in series [10], 0.2 mg/mL (≈ 1.22 mM); in series [17] (S. aureus, ref Sharma et al. (2023)) it was 500–1,000 μg/ml. Besides, the Mechanisms of action entry is “• Inhibition of efflux pump” in series [7] (ref Macêdo et al. 2022); “• Gene expression reduction linked to intracellular adhesion” in series [7] (ref Mastoor et al. 2022); “• Inhibition of norA efflux pump” in [7] (ref Muniz et al. 2021); “• Reduced proteinase production and host cell adherence” in series [11]; “• Reduction in exopolysaccharide production • Disruption and inhibition of biofilm • Downregulation of csuE gene” in series [16]; “• Disruption of cell membrane • Reduction in intracellular pH and ATP levels • Cell membrane hyperpolarization • Downregulation of biofilm-related genes (pgaA, luxS, wbbM, wzm) • Upregulation of mrkA gene” in series [20]. Besides, the Mechanisms of action entry in series [21] (ref Buru et al. 2022) was “• Downregulation of luxS gene • Inhibition of biofilm production • Enhancement of secondary metabolites • Upregulation of argC protein”; in series [21] (ref El-Far et al. 2021), “• Downregulation of biofilm-related genes (sarA, icaA, icaD) • Reduction of polysaccharide accumulation and cell adhesion”; in series [24] it was “• Reduced proteinase production”. Besides, the FICI is 0.25–0.32 in series [13] (combined with ciprofloxacin, ref Aleksic Sabo et al. (2021)); 0.19–0.63 in [14] (with voriconazole, C. krusei isolates, ref Sharifzadeh and Shokri (2021)); 0.25–0.88 in [18]. In addition, in series [15], the “optimal concentration for inhibiting infection” value was 100 µM. The biofilm eradication entry in series [21] (MIC or 2 × MIC concentrations, established MRSA biofilms, ref El-Far et al. (2021)) is given as “effectively eradicated established MRSA biofilms”.
With `CC(C)=CCC/C(C)=C/CO` [Geraniol], the MIC/Sensitivity in series [25] was 1.74 mg/mL (≈ 11.3 mM); in [3], 0.1 to 0.4 mg/mL; in [5] it was 0.1 to 0.35 mg/mL; in series [9] it was 0.1 to 0.4 mg/mL. In series [6], the MIC was 940 to 7500 µM. In series [16], the Mechanisms of action entry is “• Reduction in exopolysaccharide production • Disruption and inhibition of biofilm • Downregulation of csuE gene”. In addition, the therapeutic effect entry in series [26] is listed as “equivalent therapeutic effects”.
Take `Cc1ccc(C(C)C)cc1` [p-Cymene]: the MIC/Sensitivity in series [25] is 0.01025 mg/mL (≈ 0.0764 mM); in series [27], 1075.1022 mg/mL (≈ 8010 mM); in series [29] it was 2150.2044 mg/mL (≈ 16000 mM); in series [13] (ref Sayout et al. 2020), 0.00513 mg/mL (≈ 0.0382 mM); in [30], 0.0041 mg/mL (≈ 0.0305 mM); in series [17] it was 0.01025 mg/mL (≈ 0.0764 mM). The MIC/Sensitivity in [32] (setting [33]) was 1 mg/mL (≈ 7.45 mM). For the same compound, in series [28] (C. jejuni, ref Šimunović et al. (2020)), the efflux pump inhibition entry is “inhibited efflux pumps”. Moreover, the Mechanisms of action entry in series [28] (setting [33]) was “• Inhibition of efflux pump”. Moreover, in series [31], the “effect on influenza H1N1” value is “reduced virus protein expression and impaired nuclear translocation”. For the same compound, the MIC in series [32] (ref Šimunović et al. (2020)) is on record as 1,000 μg/ml.
